Laboratory results reported in ChEMBL document CHEMBL2069174, “Novel 2-methoxyacylhydrazones as potent, selective PDE10A inhibitors with activity in animal models of schizophrenia” (Bioorg Med Chem Lett, 2012).

Key:
Mus musculus = test: Oral bioavailability in mouse; format: ADME, organism-based; conditions: in vivo
Nucleic Acid = test: (§1) Ratio of drug level in brain to plasma in mouse; format: ADME, organism-based; conditions: brain
[1] = Metabolic stability of the compound in simulated gastric fluid; format: physicochemical; conditions: simulated gi fluid
[2] = as §1; format: ADME, organism-based; conditions: brain and plasma, read-out: BPR

F (Mus musculus) [%]	BPR (Nucleic Acid)	Stability [1]	Kp [2]	Compound
48	0.39			COc1cc(/C=N/NC(=O)C(OC)c2ccc(-n3cccn3)cc2)cc(OC)c1Br (racemic)
63	0.37	Stable		COc1cc(/C=N/NC(=O)C(OC)c2ccc(N3CCOCC3)cc2)cc(OC)c1Br (racemic)
92	0.12	Stable		COc1cc(/C=N/NC(=O)C(OC)c2ccc(-n3cccn3)cc2)cc(OC)c1Br (stereo in doubt; 61)
91			0.27	COc1cc(/C=N/NC(=O)C(OC)c2ccc(N3CCOCC3)cc2)cc(OC)c1Br (single isomer, unassigned; enantiomer 1)
